# Experiments:
# [1] = Ratio of inhibitory activities against human tryptase to that of human tissue plasminogen activator (tissue plasminogen activator)
# [2] = Ratio of inhibitory activities against human tryptase to that of human thrombin
# [3] = Ratio of inhibitory activities against human tryptase to that of human trypsin
# [4] = Ratio of inhibitory activities against human tryptase to that of human urokinase plasminogen activator (microPa)
# Tryptase = Tryptase (Homo sapiens, UniProt Q9BZJ3+Q15661+Q9NRR2); experiment: Inhibitory concentration against human tryptase
# [5] = Ratio of inhibitory activities against human tryptase to that of human plasmin
# [6] = Aqueous stability was evaluated as half life at 37 degree C at pH 7; assay type: physicochemical; settings: aqueous solution
# [7] = Aqueous stability was evaluated as half life at 37 degree C at pH 9; assay type: physicochemical; settings: aqueous solution
Ratio [1],Ratio [2],Ratio [3],Ratio [4],IC50 (Tryptase) [nM],Ratio [5],half-life [6] [h],half-life [7] [h],Compound
> 17400,> 17400,1680,12100,1.9,8420,–,–,N=C(N)N1CCCC(C[C@H]2C(=O)N(C(=O)N3CCN(C(=O)CCCCCC4CCCCC4)CC3)[C@@H]2C(=O)O)C1 (stereo partly specified)
> 16500,> 16500,> 8,> 226,< 1.7,> 26,–,–,N=C(N)NCCC[C@H]1C(=O)N(C(=O)N2CCN(C(=O)CCCCCc3ccccc3)CC2)[C@@H]1C(=O)O
> 7150,> 7150,739,5000,4.6,> 7150,–,–,N=C(N)N1CCCC(C[C@H]2C(=O)N(C(=O)N3CCN(C(=O)CCCCCc4ccccn4)CC3)[C@@H]2C(=O)O)C1 (stereo partly specified)
> 5500,> 5500,2170,> 5500,6,3620,> 48,23.9,CN(CCCCc1ccccc1)C(=O)N1CCN(C(=O)N2C(=O)[C@H](CC3CCCN(C(=N)N)C3)[C@H]2C(=O)O)CC1 (stereo partly specified)
> 19400,> 19400,> 3390,> 11800,< 1.7,> 12900,> 48,> 17.5,N=C(N)N1CCC[C@H](C[C@H]2C(=O)N(C(=O)N3CCN(C(=O)CCCCCc4ccccc4)CC3)[C@@H]2C(=O)O)C1
> 19400,> 19400,> 1940,> 17500,< 1.7,> 16300,> 48,> 17.5,N=C(N)N1CCCC(C[C@H]2C(=O)N(C(=O)N3CCN(C(=O)CCCCCc4ccccc4)CC3)[C@@H]2C(=O)O)C1 (stereo partly specified)

# The remaining lines, values behind:
Compound,Ratio [1],Ratio [2],Ratio [3],Ratio [4],IC50 (Tryptase) [nM],Ratio [5],half-life [6] [h],half-life [7] [h]
CC(C)C(OC(=O)N1CCN(C(=O)N2C(=O)[C@H](CC3CCCN(C(=N)N)C3)[C@H]2C(=O)O)CC1)C(C)C (stereo in doubt; form 1) [listing 1 of 2 here],> 465,> 465,258,> 465,–,> 465,–,–
"CC(C)C(OC(=O)N1CCN(C(=O)N2C(=O)[C@H](CC3CCCN(C(=N)N)C3)[C@H]2C(=O)O)CC1)C(C)C (single isomer, unassigned) [listing 1 of 2 here]",> 162,> 162,> 162,> 162,–,> 162,–,–
CC(C)(C)NC(=O)N1CCN(C(=O)N2C(=O)[C@H](CCCN=C(N)N)[C@H]2C(=O)O)CC1,> 8250,2620,18,135,–,430,> 48,–
CC(C)C(OC(=O)N1CCN(C(=O)N2C(=O)[C@H](CCCN=C(N)N)[C@H]2C(=O)O)CC1)C(C)C,9170,> 9170,5,843,4,364,> 48,7.3
N=C(N)N1CCC[C@@H](C[C@H]2C(=O)N(C(=O)N3CCN(C(=O)CCCCCc4ccccc4)CC3)[C@@H]2C(=O)O)C1,> 19400,> 19400,> 3280,> 19400,< 1.7,> 19400,> 48,> 17.5
N=C(N)N1CCCC(C[C@H]2C(=O)N(C(=O)N3CCN(C(=O)NCCCCc4ccccc4)CC3)[C@@H]2C(=O)O)C1 (stereo partly specified),> 19400,> 19400,> 1360,> 8780,< 1.7,> 16100,> 48,12
CC(C)C(OC(=O)N1CCN(C(=O)N2C(=O)[C@H](CC3CCCN(C(=N)N)C3)[C@H]2C(=O)O)CC1)C(C)C (stereo in doubt; form 1) [listing 2 of 2 here],–,–,–,–,71,–,> 48,> 48
N=C(N)N1CCCC(C[C@H]2C(=O)N(C(=O)N3CCN(C(=O)OCCCOc4ccccc4)CC3)[C@@H]2C(=O)O)C1 (stereo partly specified),> 19400,> 19400,> 1680,> 19400,< 1.7,> 92500,–,–
"CC(C)C(OC(=O)N1CCN(C(=O)N2C(=O)[C@H](CC3CCCN(C(=N)N)C3)[C@H]2C(=O)O)CC1)C(C)C (single isomer, unassigned) [listing 2 of 2 here]",–,–,–,–,204,–,–,–
CC(C)C(OC(=O)N1CCN(C(=O)N2C(=O)[C@H](CC3CCCN(C(=N)N)C3)[C@H]2C(=O)O)CC1)C(C)C (stereo in doubt; form 2) [listing 1 of 2 here],> 465,> 465,364,> 465,–,> 465,–,–
CC(C)C(OC(=O)N1CCN(C(=O)N2C(=O)[C@H](CC3CCCN(C(=N)N)C3)[C@H]2C(=O)O)CC1)C(C)C (stereo in doubt; form 2) [listing 2 of 2 here],–,–,–,–,63,–,–,–
CC(C)C(OC(=O)N1CCN(C(=O)N2C(=O)[C@H](CC3CN(C(=N)N)C3)[C@H]2C(=O)O)CC1)C(C)C,2840,> 2840,7,862,12,394,> 48,14.4

# Reference: ChEMBL document CHEMBL1134958 (Bioorg Med Chem Lett, 2002)
